Measurements reported in EP0147498A2, “Method of testing chemical and biological substances” (Thorn, Werner Prof. Dr., priority 1983, dated 1985).

Key:
[1] = system: Syncytiotrophoblasten der Placenta; conditions: cited from earlier work; for PP-Bildung in Meerschweinchenplacenten: animal experiments, Archiv für Gynäkologie 216 (1974) and 221 (1976); for Auftreten von Plasmapolypen am Syncytiotrophoblasten der Placenta: poisoning of pregnant guinea pigs, within a few minutes, already known
Magenschleimhaut = experiment: Plasma polyp (PP) formation at the gastric mucosa after application by stomach tube, PP isolated by reverse centrifugation and counted by phase-contrast microscopy; conditions: for Anzahl der PP pro 1 g Rattenmagen: stomach tube, about 20-30 min
Excerpt: Die PP-Bildung, deren Konzentration und Auszählung wurden an Gruppen zu je 5 Ratten von 140 bis 160 g Körpergewicht, im Mittel 150 g, kontrolliert und die Anzahl der PP auf 1 g Magen (Leergewicht) umgerechnet. Die Tiere waren vor dem Versuch 15 bis 17 Stunden nahrungsfrei. Die Applikation der Testsubstanzen, die gelöst sind in Krebs-Ringer-Lösung (KRL) oder Aq.bidest, erfolgte per Schlundsonde. Die verabreichte Lösung besitzt einen pH-Wert von 7,0 bis 7,2. Die Verweildauer des applizierten Volumens hängt zum Teil ab von den Eigenschaften der Testsubstanz. […] Die Verweildauer der Testsubstanz bis zur Entnahme der Mägen einer Gruppe betrug etwa 20 bis maximal 30 min. Dabei werden dosisabhängig die abgeschnürten PP erfaßt.
Es wurden 5 Tierversuche - zu einer Serie zusammengefaßt - durchgeführt innerhalb von 40 min, wobei die Mägen wie folgt aufgearbeitet wurden: • 1. Jeder Ratte werden in nicht narkotisiertem Zustand 4,5 ml der Lösung bestehend aus der in KRL oder Aq.bidest gelösten Testsubstanz mittels einer Schlundsonde appliziert. • 2. Nach einer Einwirkzeit von etwa 15 bis 20 min werden 40 bis 45 mg Nembutal intraperitoneal appliziert, 2 bis 3 min zugewartet und dann der Magen während eines Zeitraums von etwa 5 min entnommen. • 3. Der Magen wird aufgeschnitten, der Inhalt aufgefangen, auf PP geprüft und der leere Magen in. oxygenierte KRL-Lösung mit Glucosezusatz geworfen. • 4. Alle 5 Mägen werden in der glucosehaltigen KRL dreimal hochtourig homogenisiert, das Homogenisat über ein feinmaschiges Sieb gegossen, und das Sieb wird mit 20 ml KRL nachgespült, so daß ein Endvolumen von 80 ml vorliegt. • 5. Die Volumina aus den Stufen 3 und 4 werden mit 8 ml eine: 7 %iger Lösung aus einem Copolymeren der Saccharose mit Epichlorhydrin unterschichtet und bei 2000 Umdrehungen/min im Schwingbecherrotor für 20 min zentrifugiert. • 6. Die die PP enthaltende Schicht wird erneut 60 min im Festwinkelrotor bei 13000 Umdrehungen/min (Ultrazentrifuge) zentrifugiert, der Uberstand wird verworfen und das Sediment weiterverarbeitet. • 7 Das Sediment wird einer umgekehrten Zentrifugation in der Ultrazentrifuge bei 25000 U/min für 45 min unterzogen. • 8. Die in einer Bohrung aufgefangenen PP aus der umgekehrten Zentrifugation werden in 50 µl KRL aufgenommen. • 9. Zur Auszählung der PP aus Stufe 8 bei einem Ansatz von jeweils 3 µl dient ein Phasenkontrastmikroskop. Es werden 10 Felder mit dem Rasterobjektiv ausgezählt, zum Teil unter fotografischer Kontrolle. Die in der nachfolgenden Tabelle aufgeführten Werte stammen jeweils aus drei Ansätzen; einer Probe von 5 Rattenmägen oder aus der Auswertung von 30 Feldern. • 10. Mittelwert pro Feld x Umrechnungsfaktor pro Feld x 16,6 ergibt die Zahl der PP pro Gramm Magen. Der Umrechnungsfaktor für die Feldfläche von 18 x 18 mm^2 ist 24,652.
Es wurden die in der folgenden Tabelle angegebenen Substanzen injiziert und dann die Anzahl der PP aus einer Serie von 5 Tieren als Mittelwert pro Gramm Rattenmagen oder gemittelt aus mehreren Serien mit jeweils 5 Tieren ermittelt.

Compound: [F-].[Na+] [Natriumfluorid]
- PP-Bildung in Meerschweinchenplacenten [1]: verstärkte, reproduzierbare Bildung und Abschnürung von Zellprotrusionen
- Auftreten von Plasmapolypen am Syncytiotrophoblasten der Placenta [1]: in großer Zahl

Compound: CC(=O)Oc1ccccc1C(=O)O [ASS, Acetylsalicylsäure]
- Anzahl der PP pro 1 g Rattenmagen (Magenschleimhaut; 0,5 mmol ASS in 4,5 ml Aq.bidest, mean of 3 series of 5 rats): 728.000 PP pro 1 g Rattenmagen
- Anzahl der PP pro 1 g Rattenmagen (Magenschleimhaut; 0,25 mmol ASS in 4,5 ml Aq.bidest, mean of 3 series of 5 rats): 610.700 PP pro 1 g Rattenmagen

Compound: O=[N+]([O-])c1ccc(O)c([N+](=O)[O-])c1 [2.4-Dinitrophenol]
- PP-Bildung in Meerschweinchenplacenten [1]: keiner vermehrten PP-Bildung

Compound: CC(=O)C(=O)O [Na-Pyruvat, Natriumpyruvat]
- Anzahl der PP pro 1 g Rattenmagen (Magenschleimhaut; 0,5 mmol Na-Pyruvat in 4,5 ml Aq.bidest, 1 series of 5 rats): etwa 220.000 PP pro 1 g Rattenmagen
- PP-Zahlen gegenüber der Blindprobe (4,5 ml Aq.bidest) (Magenschleimhaut; Na-Pyruvat alone, compared with the blank): keine Erhöhung

Compound: O=C(O)CI [Monojodacetat]
- PP-Bildung in Meerschweinchenplacenten [1]: verstärkte, reproduzierbare Bildung und Abschnürung von Zellprotrusionen
- Auftreten von Plasmapolypen am Syncytiotrophoblasten der Placenta [1]: in großer Zahl

Compound: O=C(O)O [NaHCO3]
- Anzahl der PP pro 1 g Rattenmagen (Magenschleimhaut; 1,33 mmol NaHCO3 in 4,5 ml Aq.bidest, mean of 4 series of 5 rats): 333.700 PP pro 1 g Rattenmagen

Compound: CC(O)C(=O)O (centres unmarked) [Na-Lactat]
- Anzahl der PP pro 1 g Rattenmagen (Magenschleimhaut; 2,0 mmol Na-Lactat in 4,5 ml Aq.bidest, mean of 4 series of 5 rats): 344.000 PP pro 1 g Rattenmagen
